The values below are quoted from earlier work in paper PMC11431137, “[^68Ga]Ga-DOTAGA-Glu(FAPi)2 Shows Enhanced Tumor Uptake and Theranostic Potential in Preclinical PET Imaging” (Diagnostics, 2024).

One data set deals with FAP over PREP and DPP. The arrangement: method as in PMID 38999044. The settings on record: compared with DOTAGA.(SA.FAPi)2; cited from earlier work.
In another data set the test system is FAP. More on the design: method as in PMID 36980775. The note with it: cited from earlier work.

As for `N#C[C@@H]1CC(F)(F)CN1C(=O)CNC(=O)c1ccnc2ccc(OCCCCNC(=O)CC[C@H](NC(=O)CCC(C(=O)O)N3CCN(CC(=O)O)CCN(CC(=O)O)CCN(CC(=O)O)CC3)C(=O)NCCCCOc3ccc4nccc(C(=O)NCC(=O)N5CC(F)(F)C[C@H]5C#N)c4c3)cc12` (stereo partly drawn) [DOTAGA-Glu(FAPi)2, 2,2′,2″-(10-(4-(((S)-1,5-bis((4-((4-((2-((S)-2-Cyano-4,4-difluoropyrrolidin-1-yl)-2-oxoethyl)carbamoyl)quinolin-6-yl)oxy)butyl)amino)-1,5-dioxopentan-2-yl)amino)-1-carboxy-4-oxobutyl)-1,4,7,10-tetraazacyclododecane-1,4,7-triyl)triacetic acid], the “selectivity for FAP over PREP and DPP” value in the data set on FAP over PREP and DPP was “higher selectivity than DOTAGA.(SA.FAPi)2”. Moreover, the IC50 in the data set with FAP is 0.26 ± 0.04 nM.

For orientation: IC50 means the concentration that inhibits the measured activity by half.
